Legend:
DIC in mouse models = test: Dox-induced cardiotoxicity (DIC) in mouse models: heart weight, echocardiography, histology; assay type: in vivo
Protocol: AP39 treatment ameliorated DIC in mouse models in a dose dependent manner. DIC was induced by giving a single dose of Dox i.p. (FIG. 3A) as reported before^48. AP39 was given for six consecutive days starting with Dox treatment. two different doses of AP39 were tested.
AP39 ameliorated cardiac fibrosis in a dose dependent manner. […] It is possible that lower doses of AP39 might have induced favorable metabolic changes which are enough to improve heart function but not sufficient to protect from cardiac cell death after Dox. These findings needs to be confirmed in a larger study.

H9C2 cells = test: Mitochondrial H2S levels (AzMAC) and morphology (mitotracker Red) in H9C2 cells; assay type: cell-based, Rat
Text: Note that white arrow heads and yellow arrows compare and contrast no-H2S: fusion and H2S-presence: fission scenarios in the same image AP39 treatment lane.
Mitochondrial fission was correlated with H2S levels. To investigate the impact of Dox on mitochondrial biogenesis and mitochondrial H2S levels, H9C2 cells were used in combination with H2S sensitive dye AzMAC and mitotracker Red dye as reported previously^8. […] Further, H2S levels (yellow arrows) highly correlated with a dotted appearance of mitochondria, implying that H2S causes mitochondrial fission, which is a prerequisite for eliminating damaged mitochondria^49.

[1] = Oxygen Consumption Rate (OCR); assay type: cell-based; details: AP39, not significantly different in the presence of Dox
Text: AP39 enhanced AMPK activation (A and B) and produced shorter isoform of Opa1, i.e. no longer isoform of Opa1. Oxygen consumption rates (OCR) with different treatments. […] Note AMPK substrate ACC phosphorylation.
It is possible that AP39 relies mostly on increased energy efficiency rather than on improving OCR after Dox treatment.

[2] = system: Myc/Max-regulated transcripts; test: RNAseq analysis in H9C2 cell line; assay type: cell-based, Rat
Protocol: The coverage among groups are indicated.
Next, to interrogate mechanisms of AP39 protection against DIC, RNAseq analysis was performed. There was sufficient coverage of the whole transcriptome among the groups (FIG. 8A).

[3] = 13C-glucose isotope tracing and GC-MS metabolite quantification; assay type: cell-based
Protocol: Stable isotope (13C glucose) tracer studies. Heatmap.
(§1) To this end, 13C-glucose flux/isotope tracing and quantified metabolites through GC-MS were examined at 16 hrs and 24 hrs after the treatments. Glucose, glutamine and lactate were also measured in supernatants at these time points. […] With the exception of glycolytic metabolites, the remaining metabolic pathways (poor labeling) were non-operational after Dox treatment (FIG. 10A).
When considered AP39-mediated activation of AMPK, H2S is selectively halting energy consuming anabolic pathways, such as protein synthesis (also, lipid, AMPK inhibits […], a rate limiting lipid synthesizing enzyme, FIGS. 7A and B), as observed before^41, thus leading to accumulation of amino acids and is enhancing TCA cycle through AMPK activation. The net result is better energy management with AP39/H2S treatment.

[4] = Glucose, glutamine and lactate in cell culture supernatants; assay type: cell-based
Protocol: Quantification of glutamine, glucose and lactate in the cell culture supernatants at 16 and 24 hrs. n=3; p<0.05 or 0.01 (2 symbols); * vs Cont; # vs Dox at 16 hrs; and $ vs Cont; ^ vs Dox at 24 hrs.
as §1
However, AP39 treatments caused dominant effects in glucose utilization (1.5 fold increase vs Dox at 24 hrs) and lactate production. Such high lactate production is one of the main reasons behind the modest in vitro protective ability of AP39 against Dox (FIG. 5), which is in contrast to the in vivo scenario (FIGS. 3 and 4). Thus, metabolomics and transcriptomic approaches led to better understanding of the protective function of AP39.

hiPSC-CMs = test: DIC in hiPSC-CMs (Annexin V, MitoSox Red); assay type: cell-based, human
[5] = system: SK-N-BE(2) neuroblastoma cell line; test: Cell viability (images, MTT) of SK-N-BE(2) neuroblastoma cell line; assay type: cell-based, human
Protocol: (§2) Methods for cell viability: Cells were plated in 96 wells/6 wells cell culture plates. After 24 hrs of plating, the treatments (added in the growth medium) were conducted. The following assays were performed after 24 hrs of the treatments (day 2). (FIGS. 15A, 17-20, 24-27)
(§3) MTT assay methods. For the MTT assay, […] of 5 mg/ml MTT-tetrazolium salts in PBS was added to each well containing the growth medium. After 3 hours of incubation, the medium was removed and the formazan crystals were dissolved by adding DMSO. The absorption of the formazan solution was measured using a spectrophotometer at a wavelength of 570 nm. FIGS. 15B, 21-22.
The SK-N-BE(2) neuroblastoma cell line was exposed to control, AP39 (AP) at 40 or 60 μM, Doxorubicin at 2.5 or 20 μM, thiolactate at 10 mM, AP39 and Doxorubicin, AP39 and thiolactate, or Doxorubicin and Thiolactate. […] FIGS. 17, 21, 24-25.

[6] = system: 786-O cells renal cancer cells; test: Cell viability of 786-O renal cancer cells; assay type: cell-based
Protocol: as §2, §3
786-O cells renal cancer cells were exposed to control, AP39 (AP) at 40 or 60 μM, Doxorubicin at 2.5 or 20 μM, thiolactate at 10 mM, AP39 and Doxorubicin, AP39 and thiolactate, or Doxorubicin and Thiolactate. […] FIGS. 18 and 21.

MCF7 breast cancer cells = test: Cell viability (MTT, crystal violet) of MCF7 breast cancer cells; assay type: cell-based
Protocol: as §2, §3
Crystal Violet (CV) assay. For the CV Staining assay, cells were stained with 0.5% crystal violet in 30% ethanol for 10 minutes at room temperature after removal of the medium. The cells were lysed in a 1% SDS (sodium dodecyl sulfate) solution. The absorbance of the solution was measured using a spectrophotometer at a wavelength of 595 nm. FIG. 27.
MCF7 breast cancer cells were exposed to control, AP39 (AP) at 40 or 60 μM, Doxorubicin at 2.5 or 20 μM, thiolactate at 10 mM, AP39 and Doxorubicin, AP39 and thiolactate, or Doxorubicin and Thiolactate. […] FIGS. 26-27.

[7] = AP39 40 or 60 μM, thiolactate 10 mM, 24 hrs
[8] = combination with Doxorubicin 2.5 μM

In the case of `O=C(CCCCCCCCC[P+](c1ccccc1)(c1ccccc1)c1ccccc1)Oc1ccc(-c2cc(=S)ss2)cc1.[Br-]` [AP39], the “heart weight decline seen during Dox treatment” value (DIC in mouse models; AP39 higher dose 0.642 mg/kg, six consecutive days, single dose of Dox i.p.) is reported as “effective in countering heart weight decline”, the “left ventricular dysfunction (echocardiography)” value (DIC in mouse models; both doses of AP39, six consecutive days, single dose of Dox i.p.) is reported as “effective in ameliorating left ventricular dysfunction” and the “Dox induced fibrosis and cell infiltration (histological sections)” value (DIC in mouse models; higher AP39 dose) is reported as “prevented Dox induced fibrosis and cell infiltration”. The “cardiac pathology (fibrosis, cell infiltration)” value (DIC in mouse models; lower AP39 dose) was “not cardiac pathology”, the Dox-mediated mitochondrial fusion (H9C2 cells; H9C2, AP39 with Dox) was “reversed after AP39 treatment” and the “mitochondrial H2S levels (AzMAC)” value (H9C2 cells; H9C2, single agent vs control) was “H2S production enhancement”. For the same molecule, the “mitochondrial morphology (fission / fusion)” value (H9C2 cells; H9C2, single agent vs control) was “increased mitochondrial fission”, the “Oxygen Consumption Rate (OCR)” value [1] was “suppressed OCR” and the “abnormal transcriptional changes induced after Dox treatment, global level (RNAseq)” value ([2]; H9C2, AP39+Dox) was “significantly reversed abnormal transcriptional changes”. For the same molecule, the Myc transcription ([2]; H9C2, AP39 with Dox) was “restored Myc transcription”, the “Serine and glycine 13C labeling” value ([3]; 16 hrs and 24 hrs) was “suppressed” and the “accumulation of TCA metabolites during Dox treatment” value ([3]; AP39 with Dox) was “attenuated accumulation of TCA metabolites”. For the same molecule, the “amino acid accumulations during Dox treatment” value ([3]; AP39 with Dox) was “not effective in preventing many amino acid accumulations”, the “13C labeling of TCA cycle metabolites (citrate, malate, alpha-ketoglutarate, fumarate)” value ([3]; AP39 with or without Dox, 16 hrs and 24 hrs) was “highly labeled” and the “glutamine utilization (supernatants)” value ([4]; compared to control) was “suppressed glutamine utilization”. The lactate production ([4]; supernatants) was “potent inducer of lactate production”, the glucose utilization ([4]; supernatants, at 24 hrs) was 1.5 fold increase vs Dox and the “DIC in hiPSC-CMs” value (hiPSC-CMs; 4 μM AP39 with 7.5 μM Dox, 48 hrs) was “attenuated DIC”. The “tolerance of hiPSC-CMs to AP39” value (hiPSC-CMs; 40 μM AP39, compared with H9C2 cells) was “greater susceptibility”, the “level of apoptosis (Annexin V) and mitochondrial ROS (MitoSox Red)” value (hiPSC-CMs; hiPSC-CMs, AP39 with Dox) was “attenuated with AP39 treatment” and the “cell killing, agent alone” value [5, 7] was “able to kill SK-N-BE(2) cells”. The “potency of low doses of Doxorubicin” value [5, 8] was “able to increase the potency of low doses of Doxorubicin”, the “reduction of Dox IC value by AP39” value ([5]; vs original IC70) was ~8 fold and the “cell killing, agent alone” value [6, 7] was “able to kill renal cancer cells”. For the same molecule, the “potency of low doses of Doxorubicin” value [6, 8] was “able to increase the potency of low doses of Doxorubicin”, the “cell killing, agent alone” value (MCF7 breast cancer cells; [7]) was “able to kill breast cancer cells” and the “potency of low doses of Doxorubicin” value (MCF7 breast cancer cells; [8]) was “able to increase the potency of low doses of Doxorubicin”.
